Like-named read-outs stand apart in the source and are kept apart here.
How the values were obtained:
[1] = test system: IP10, TNF-alpha and MCP-1; assay: Cytokine/chemokine expression in LPS induced PBMC
[2] = test system: Human T-cell Inflammation; assay: T-cell inflammation inhibition assay (ConA and PHA stimulation) in PBMC; settings: 100, 50, and 25 µM, 24 hours, PBMC from three human donors
[3] = test system: ACE2; assay: ACE2 expression in Calu-3 cells (immunofluorescence microscopy and WES); type: cell-based, Homo sapiens; settings: 100µM ATR-002, 24h
Procedure: Then the wells were washed once with PBS and fixed with 300µL/well 4% PFA in PBS for 10 minutes at room temperature. After another wash step with PBS, the cells were blocked for 1 hour with 1% BSA in PBS at room temperature before incubation with 200µL/well of the primary antibody (Goat-Anti-ACE2 antibody (R&D systems; Cat.: AF933; Lot.:HOK0320061) (1:20) in 1% BSA in PBS for 1h at room temperature on a shaker (100 rpm). Afterwards, the cells were washed three times with PBS before incubation with 200µL/well of the secondary antibody Donkey anti-Goat IgG (H+L) Highly Cross-Absorbed Secondary Antibody, Alexa Fluor Plus 647 (Invitrogen; Ref.: A32849TR; Lot.:VE306231) (1:200) in 1% BSA in PBS for 45 minutes at room temperature on a shaker. After another three wash steps with PBS, 200µL Rhodamine Phalloidin (Invitrogen; Ref.: R415; Lot.: 2157163) (1:40 in 1% BSA in PBS) were added to each well and incubated for 30 minutes at room temperature on a shaker. After two final wash steps with PBS, the cover slips were removed from the wells and mounted on microscope slides with Roti®-Mount FluorCare DAPI (Roth; Art.-Nr.: HP20.1; Lot.: 080293945). The slides were let dry at 4°C in the dark and then analysed using a confocal laser scanning microscope (LSM800, Zeiss).

[4] = test system: SARS-CoV-2 strain FI; type: cell-based, Severe acute respiratory syndrome coronavirus; settings: Vero cells, MOI 0.01; 50 µM ATR-002; 24h, 36h and 48h
[5] = test system: IL-6, IL-8, MCP-1, IP-10 and CCL5 mRNA; assay: Pro-inflammatory cytokine mRNA expression in SARS-CoV-2 infected Calu-3 cells (real-time PCR); type: cell-based, Homo sapiens; settings: SARS-CoV-2 (FI) MOI 0.01, increasing amounts of ATR-002
[6] = test system: SARS-CoV-2 (FI); type: cell-based, Severe acute respiratory syndrome coronavirus; settings: primary human ALI cultures, MOI 1.0; 50 µM and 100 µM; three cultures
[7] = test system: SARS-CoV-2; type: cell-based, Severe acute respiratory syndrome coronavirus; settings: CaCo-2 cells, MOI 0.1; 50 and 100 µM ATR-002; 24h
[8] = test system: pERK1/2; assay: Wes analysis of ERK phosphorylation in SARS-CoV-2 infected Caco-2 cells; type: cell-based, Homo sapiens; settings: CaCo-2 cells infected SARS-CoV-2 (MOI 0.1); 50 and 100 µM ATR-002; 24h
Procedure: For the Virus yield reduction assay a 24-well plate (Greiner Bio-One, Cat. 662-160) with 95% confluent Caco-2 cells was prepared. The wells were washed once with Caco-2 infection medium DMEM (Gibco, Cat. 41965-039) supplemented with 5% FCS (Capricorn, Cat. FBS-12A), 1% Penicillin/Streptomycin, (Sigma Aldrich, Cat. P4333) and 1% Non-essential amino acids (NEAA) (Merck, Cat. K 0293). Cells were infected with SARS-CoV-2 (MOI 0.1) for 1h in 200µL Caco-2 infection medium per well. Afterwards the Virus inoculum was removed completely and cells were treated with 1mL per well with different concentrations of ATR-002 (100µM, 50µM, 25µM, 12.5µM, 6.25µM, 3.125µM, 1.56µM, 0.78µM, 0.39µM, 0.195µM, 0.098µM, 0µM) in Caco-2 infection medium with 1% DMSO for 24h at 37°C, 5% CO2. […]
Wes™ capillary electrophoresis by ProteinSimple® was used to identify and quantify pERK1/2, ERK1/2 and SARS-CoV-2 Nucleoprotein. Cell lysates were diluted with 0.1X Sample Buffer (ProteinSimple, Abingdon, Oxford, UK) to approximately 50ng total protein per lane and analyzed using specific antibodies. […] The anti-rabbit secondary antibody (ProteinSimple, Cat. DM-001) and anti-mouse secondary antibody (ProteinSimple, Cat. DM-002) and all other reagents for WES analysis were also purchased from ProteinSimple and were ready to use.

[9] = human, in vivo
[10] = test system: SARS-CoV-2 (FI); type: cell-based, Severe acute respiratory syndrome coronavirus
[11] = test system: memory T cells; assay: 12-day T cell clonal expansion with IFN-γ FluoroSpot (memory T cell reactivation)
[12] = test system: Calu-3 cells; assay: Cytotoxicity evaluation in Calu-3 cells; type: cell-based, Homo sapiens; settings: 72 h treatment
Procedure: In a next step, Calu-3 cells were incubated with increasing amounts of ATR-002 over 24, 48 or 72 hours. Specifically, Calu-3 cells were infected with SARS-CoV-2 (FI) using a MOI of 0.01. 1 h.p.i. cells were treated with ATR-002. Mock, SARS-CoV-2 and DMSO served as controls. […] Untreated (SARS-CoV-2) and DMSO (0.1 %) treated cells served as negative controls. Data represents means ± SD of three independent experiments, each performed in triplicates. Data passed a one-way ANOVA followed by Dunnett's multiple comparison test (^∗∗ p≤0.0021; ^∗∗∗ p≤0,0002; ^∗∗∗∗ p≤0.0001) for each time point separately. DMSO was used as reference. […] Data in combination with (C) was used to calculate the CC50 value and the selectivity index (SI). […] Data represent means ± SD of three independent experiments.

[13] = test system: SARS-CoV-2; type: cell-based, Severe acute respiratory syndrome coronavirus; settings: Caco-2, Vero E6 and Calu-3 cells; 100 µM, 75 µM, 50 µM; 24 hours
[14] = test system: SARS-CoV-2; assay: SARS-CoV-2 Syrian hamster infection model; settings: for reduction of progeny virus in throat swabs (TCID50 assay): 100mg/kg loading dose then 75mg/kg daily, oral; for reduction of progeny virus in throat swabs (TCID50 assay) / reduction of viral load in throat swabs (PCR): day 3 p.i.
[15] = test system: cytokine & chemokine gene expression; assay: Acute lung injury (ALI) mouse model, LPS induced cytokine and chemokine gene expression; type: in vivo; settings: 5mg/kg LPS i.p.; 25 mg/kg ATR-002 i.p. one hour post stimulation; 6h post treatment
[16] = test system: SARS-CoV-2 viral gene RdRP; type: cell-based, Severe acute respiratory syndrome coronavirus; settings: Vero cells, MOI 0.01; 50 µM ATR-002; 24, 36 and 48 hpi
[17] = test system: VSV ΔG/GFP-Luc+SΔ21; type: cell-based
[18] = test system: MCP-1; assay: MCP-1 expression in SARS-CoV-2 infected CaCo2 cells; type: cell-based, Homo sapiens; settings: high amount of ATR-002 necessary
[19] = test system: Human T-cell Inflammation; assay: T-cell inflammation inhibition assay (Anti-CD3 stimulation) in PBMC; settings: 100, 50, and 25 µM, 24 hours, PBMC from three human donors
[20] = test system: MxA and IL8 mRNA; assay: MxA and IL8 mRNA expression in poly (I:C) transfected A549 cells; type: cell-based, Homo sapiens; settings: 100 ng/ml poly (I:C), 24 hours
[21] = LPS induced PMBC cells, 10µg/ml ATR-002

O=C(O)c1ccc(F)c(F)c1Nc1ccc(I)cc1Cl [ATR-002, 2-(2-chloro-4-iodophenylamino)-N-3,4-difluoro benzoic acid]
inhibition at 10 µg/mL ([1]; Homo sapiens, PBMC, read-out: inhibition of LPS induced MCP-1): > 90%
IP10 expression [1, 21]: reduced
MCP-1 expression [1, 21]: reduced
TNF-alpha expression [1, 21]: reduced
inhibition of cytokine/chemokine stimulation ([2]; ConA stimulation): significant, dose dependent inhibition
inhibition of cytokine/chemokine stimulation ([2]; PHA stimulation): significant, dose dependent inhibition
ACE2 expression [3]: reduction of ACE2
viral load (virus titer by plaque assay) [4]: lower viral load than control cells
expression of pro-inflammatory cytokines (IL-6, IL-8, MCP-1, IP-10 and CCL5 mRNA) [5]: reduce the expression of pro-inflammatory cytokines
production of progeny viral particles [6]: completely blocked the production of progeny viral particles
SARS-CoV-2 virus titer [7]: inhibition
nucleocapsid protein [7]: inhibition
ERK-phosphorylation [8]: inhibition
blood levels (pharmacokinetics exposure) [9]: confirm the maintenance of clinically relevant blood levels
safety and tolerability [9]: safe and well tolerable
safety of each dose cohort (Safety Review Committee) [9]: considered to be safe
serious adverse events [9]: no serious adverse events
cell damage of infected cells (light microscopy) ([10]; Calu-3 cells infected with SARS-CoV-2, Figure 6 D): did not show the characteristic cell damage
production of progeny viral particles ([10]; Calu-3 cells, MOI 0.01, ATR-002 10 - 150 µM, 24, 48 or 72 hours): concentration dependent decrease in the production of progeny viral particles
Spot counts, representing the number of activated T cells ([11]; CEF peptide stimulated PBMCs, three donors, 5 or 10 pg/mL on three different time points, 12 days): not reduced
cell proliferation/density by microscope ([11]; in vitro culture of PBMC): no visible effect on cell proliferation/density
Cytotoxicity [12]: non-toxic concentration range
virus titer via RT-qPCR (N gene) [13]: the effect seen on all cell types was comparable
tolerability, weight loss, adverse effects ([14]; both treatment groups compared to vehicle group): well tolerated without significant weight loss
alveolar haemorrhage, oedema and type II pneumocyte hyperplasia ([14]; histopathology 4 days post infection, treated at days 1, 2, and 3 post infection): no haemorrhage, oedema and type II pneumocyte hyperplasia
score in alveolitis ([14]; histopathology 4 days post infection, treated at days 1, 2, and 3 post infection, vehicle score 3): 1
reduction of progeny virus in throat swabs (TCID50 assay) ([14]; treated 4 hours p.i.): 1.1 log10
reduction of viral load in throat swabs (PCR) ([14]; treated 4 hours p.i.): 1.1 log10
reduction of progeny virus in throat swabs (TCID50 assay) ([14]; treated 24 hours p.i.): 1.3 log10
reduction of viral load in throat swabs (PCR) ([14]; treated 24 hours p.i.): 1.2 log10
percentage of affected lung area ([14]; treatment 4 hours p.i., day 4 p.i., P=0.0282): significantly reduced affected lung tissue
percentage of affected lung area ([14]; treatment 24 hours p.i., day 4 p.i., P=0.0314): significantly reduced affected lung tissue
reduction in infectious virus titers (TCID50/g tissue) in the nasal turbinates ([14]; treatment start 4 hours p.i., day 4 p.i.): 1.3 log10
reduction of viral load in the nasal turbinates (PCR) ([14]; treatment started 4 hours p.i., day 4 p.i.): 1.1 log10
infectious virus titers in the nasal turbinates ([14]; treatment started 24 hours p.i., day 4 p.i.): not the treatment started 24 hours p.i., significantly reduced infectious virus titers
IL-1beta gene expression in lung [15]: decrease
IL-8 gene expression in lung [15]: decrease
IP-10 gene expression in lung [15]: decrease
MCP-1 gene expression in lung [15]: decrease
MIP-1beta gene expression in lung [15]: decrease
TNF-alpha gene expression in lung [15]: decrease
SARS-CoV-2 viral gene RdRP genome copy number [16]: confirmed
internalization of the VSV pseudotype virus (GFP-positive cells) [17]: reduction in the internalization of the VSV pseudotype virus
MCP-1 expression [18]: able to reduce MCP-1 expression
inhibition of cytokine/chemokine stimulation [19]: significant, dose dependent inhibition
MxA mRNA expression (anti-viral interferon system) [20]: did not affect the stimulation of the anti-viral interferon system
expression of pro-inflammatory IL8 ([20]; even with low concentrations): strong reduction

O=C(NOCC1CC1)c1ccc(F)c(F)c1Nc1ccc(I)cc1Cl [CI-1040, reference compound]
internalization of the VSV pseudotype virus (GFP-positive cells) [17]: reduction in the internalization of the VSV pseudotype virus
